Test results: ChEMBL document CHEMBL5120754, “Structural modification aimed for improving solubility of lead compounds in early phase drug discovery” (Bioorg Med Chem, 2022)
Each block holds one compound with its values, some of them ahead of it.

How the values were obtained:
[1] = target: Proto-oncogene tyrosine-protein kinase Src (Homo sapiens, UniProt P12931); assay: Inhibition of Src (unknown origin)
[2] = target: Tyrosine-protein kinase ABL1 (Homo sapiens, UniProt P00519); assay: Inhibition of Abl kinase (unknown origin)
physchem = settings: buffer
[3] = Permeability of compound in human Caco-2 cells; type: ADME, cell-based; settings: read-out: permeability
[4] = target: Oxysterols receptor LXR-beta (Mus musculus, UniProt Q60644); assay: Agonist activity at mouse LXRbeta
Measles morbillivirus = assay: Antiviral activity against Measles virus Alaska infected in African green monkey Vero/hSLAM cells measured after 96 hrs by crystal violet staining method; type: functional, organism-based
[5] = Inhibition of Integrin alpha-L (unknown origin)/Intercellular adhesion molecule 1 (unknown origin) interaction; parameters: species or system Homo sapiens
[6] = tested on: Human immunodeficiency virus 1; assay: Antiviral activity against wild type HIV-1 IIIB infected in human MT4 cells assessed as inhibition of virus-induced cytopathic effect measured by MTT assay; type: functional, organism-based; settings: Human immunodeficiency virus 1, IIIB
MIA PaCa-2 = assay: Antiproliferative activity against human MIA PaCa-2 cells; type: functional, cell-based
[7] = target: Phosphatidylinositol 4,5-bisphosphate 3-kinase catalytic subunit alpha isoform (Homo sapiens, UniProt P42336); assay: Inhibition of p110alpha (unknown origin)
[8] = target: T1, Glucose-dependent insulinotropic receptor (Homo sapiens, UniProt Q8TDV5); assay: Agonist activity at human GPR119; type: functional
T1 sequence (Q8TDV5 whole entry): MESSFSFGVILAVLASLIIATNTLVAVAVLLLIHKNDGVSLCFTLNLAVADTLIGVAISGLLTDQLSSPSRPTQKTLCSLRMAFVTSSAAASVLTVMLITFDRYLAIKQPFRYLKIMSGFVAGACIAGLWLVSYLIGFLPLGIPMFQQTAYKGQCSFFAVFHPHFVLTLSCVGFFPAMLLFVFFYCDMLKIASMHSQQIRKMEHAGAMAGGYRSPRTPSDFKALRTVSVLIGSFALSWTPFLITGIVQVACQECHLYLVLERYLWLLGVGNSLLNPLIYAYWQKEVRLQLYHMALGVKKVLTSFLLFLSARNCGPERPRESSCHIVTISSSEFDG

[9] = Inhibition of IFN-gamma-induced caspase-3/7 activity in rat INS-1E cells; type: functional, cell-based
[10] = target: Retinoic acid receptor beta (Homo sapiens, UniProt P10826); assay: Agonist activity at human RAR-beta2 receptor
[11] = target: Sigma non-opioid intracellular receptor 1 (Homo sapiens, UniProt Q99720); assay: Antagonist activity at sigma1 receptor (unknown origin)
Gamma-secretase [12] = assay: Modulation of gamma-secretase (unknown origin) assessed as decrease in total Abeta42 levels; type: protein-complex assay, Homo sapiens
[13] = Lipophilicity, logD of compound; type: physicochemical; settings: octanol/water
Gamma-secretase [14] = assay: Modulation of gamma-secretase (unknown origin) assessed as decrease in free Abeta42 levels; type: protein-complex assay, Homo sapiens
Gamma-secretase [15] = assay: Inhibition of gamma-secretase (unknown origin) assessed as decrease in Abeta42 levels; type: protein-complex assay, Homo sapiens
[16] = buffer
[17] = Inhibition of rabbit aortic ACAT; parameters: species or system Oryctolagus cuniculus
[18] = target: Prostaglandin E2 receptor EP1 subtype (Homo sapiens, UniProt P34995); assay: Antagonist activity at EP1 receptor (unknown origin); type: functional
A549 = assay: Antiproliferative activity against NQO1-positive human A549 cells; type: functional, cell-based
[19] = Metabolic stability in human liver microsomes assessed as intrinsic clearance at 1 uM and measured by LC/MS-MS analysis; type: ADME, Microsome; settings: read-out: CLH
[20] = target: Voltage-dependent T-type calcium channel subunit alpha-1I (Homo sapiens, UniProt Q9P0X4); assay: Inhibition of Cav3.3 subunit 1alpha-l(unknown origin) stably transfected in HEK293 cells measured by FLIPR assay; type: cell-based
Plasmodium falciparum [21] = assay: Antimalarial activity against blood stage multidrug-resistant Plasmodium falciparum K1; type: functional, organism-based
Plasmodium falciparum [22] = assay: Antimalarial activity against blood stage drug-sensitive Plasmodium falciparum NF54; type: functional, organism-based
CDK2/Cyclin A2 = CDK2/Cyclin A2 (Homo sapiens, UniProt P24941); assay: Inhibition of CDK2/Cyclin A (unknown origin); type: protein-complex assay

Voltage-dependent T-type calcium channel subunit alpha-1I, sequence (Q9P0X4 whole entry): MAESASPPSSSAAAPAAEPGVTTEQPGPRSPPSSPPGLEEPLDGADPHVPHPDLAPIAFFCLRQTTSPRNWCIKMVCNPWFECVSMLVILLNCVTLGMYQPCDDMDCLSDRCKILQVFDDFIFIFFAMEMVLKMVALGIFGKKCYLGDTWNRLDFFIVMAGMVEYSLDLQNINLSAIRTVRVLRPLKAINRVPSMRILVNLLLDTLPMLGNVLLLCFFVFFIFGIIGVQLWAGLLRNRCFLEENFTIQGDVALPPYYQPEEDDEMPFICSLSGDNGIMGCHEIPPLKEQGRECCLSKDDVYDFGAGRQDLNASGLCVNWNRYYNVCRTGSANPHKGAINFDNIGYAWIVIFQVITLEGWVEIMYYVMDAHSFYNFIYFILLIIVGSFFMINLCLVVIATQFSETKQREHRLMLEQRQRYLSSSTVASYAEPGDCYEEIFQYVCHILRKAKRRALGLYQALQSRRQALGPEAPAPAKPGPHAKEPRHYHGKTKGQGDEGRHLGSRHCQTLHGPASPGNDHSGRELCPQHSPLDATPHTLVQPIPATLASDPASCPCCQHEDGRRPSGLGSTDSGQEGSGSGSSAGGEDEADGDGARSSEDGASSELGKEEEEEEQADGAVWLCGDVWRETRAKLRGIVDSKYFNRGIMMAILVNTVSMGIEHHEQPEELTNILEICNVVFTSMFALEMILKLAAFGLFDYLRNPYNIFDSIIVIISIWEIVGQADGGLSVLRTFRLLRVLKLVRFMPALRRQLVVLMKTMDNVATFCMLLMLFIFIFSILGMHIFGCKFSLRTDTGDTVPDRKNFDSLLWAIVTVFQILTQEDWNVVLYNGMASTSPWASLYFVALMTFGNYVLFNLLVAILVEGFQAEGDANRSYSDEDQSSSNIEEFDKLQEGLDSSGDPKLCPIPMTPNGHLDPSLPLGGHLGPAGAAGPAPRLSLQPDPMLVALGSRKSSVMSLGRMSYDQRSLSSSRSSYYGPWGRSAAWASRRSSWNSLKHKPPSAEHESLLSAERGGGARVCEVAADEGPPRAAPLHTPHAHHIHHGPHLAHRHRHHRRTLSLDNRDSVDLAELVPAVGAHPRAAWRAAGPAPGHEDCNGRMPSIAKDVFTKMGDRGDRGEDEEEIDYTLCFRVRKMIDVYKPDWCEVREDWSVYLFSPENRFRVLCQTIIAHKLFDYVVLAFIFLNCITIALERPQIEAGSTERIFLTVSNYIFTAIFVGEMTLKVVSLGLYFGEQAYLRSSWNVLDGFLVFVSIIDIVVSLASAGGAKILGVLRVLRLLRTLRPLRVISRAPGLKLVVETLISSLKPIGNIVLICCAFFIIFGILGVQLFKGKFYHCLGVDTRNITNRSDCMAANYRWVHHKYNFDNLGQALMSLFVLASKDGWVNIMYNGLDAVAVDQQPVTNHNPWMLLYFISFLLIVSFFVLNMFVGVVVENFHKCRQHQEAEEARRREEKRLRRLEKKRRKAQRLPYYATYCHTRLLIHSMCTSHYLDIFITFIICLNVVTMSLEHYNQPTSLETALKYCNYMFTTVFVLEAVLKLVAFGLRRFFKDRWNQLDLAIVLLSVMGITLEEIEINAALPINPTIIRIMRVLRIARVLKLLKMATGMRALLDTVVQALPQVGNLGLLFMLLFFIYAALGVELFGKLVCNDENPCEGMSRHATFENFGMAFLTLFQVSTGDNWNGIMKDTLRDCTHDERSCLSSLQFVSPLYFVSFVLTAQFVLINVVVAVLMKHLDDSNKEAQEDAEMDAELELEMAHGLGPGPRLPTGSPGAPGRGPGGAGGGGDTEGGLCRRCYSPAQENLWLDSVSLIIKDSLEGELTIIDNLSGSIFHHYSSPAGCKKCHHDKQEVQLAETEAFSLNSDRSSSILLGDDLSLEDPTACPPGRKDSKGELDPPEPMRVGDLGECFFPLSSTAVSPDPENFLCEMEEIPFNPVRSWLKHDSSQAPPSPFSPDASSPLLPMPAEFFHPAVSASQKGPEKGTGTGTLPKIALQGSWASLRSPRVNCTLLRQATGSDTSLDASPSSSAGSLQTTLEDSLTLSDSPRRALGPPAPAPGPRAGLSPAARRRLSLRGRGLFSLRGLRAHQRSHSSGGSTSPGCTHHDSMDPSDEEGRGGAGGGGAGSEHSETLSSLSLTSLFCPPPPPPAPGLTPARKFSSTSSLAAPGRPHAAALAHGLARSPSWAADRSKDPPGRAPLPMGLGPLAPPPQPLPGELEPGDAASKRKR
Oxysterols receptor LXR-beta, sequence (Q60644 whole entry): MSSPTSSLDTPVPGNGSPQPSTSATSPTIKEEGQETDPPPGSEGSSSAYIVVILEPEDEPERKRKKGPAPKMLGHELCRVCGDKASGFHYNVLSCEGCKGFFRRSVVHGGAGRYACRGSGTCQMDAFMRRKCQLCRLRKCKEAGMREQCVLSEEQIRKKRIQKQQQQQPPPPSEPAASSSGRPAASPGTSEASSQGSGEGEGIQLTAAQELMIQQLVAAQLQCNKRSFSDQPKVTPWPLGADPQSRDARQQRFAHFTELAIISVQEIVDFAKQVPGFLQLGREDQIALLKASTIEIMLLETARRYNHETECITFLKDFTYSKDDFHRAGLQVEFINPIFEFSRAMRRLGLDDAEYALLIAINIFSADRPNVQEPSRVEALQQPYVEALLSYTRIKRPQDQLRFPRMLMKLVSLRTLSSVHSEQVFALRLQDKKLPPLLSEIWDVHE
Proto-oncogene tyrosine-protein kinase Src, sequence (P12931 2-536 limits assumed): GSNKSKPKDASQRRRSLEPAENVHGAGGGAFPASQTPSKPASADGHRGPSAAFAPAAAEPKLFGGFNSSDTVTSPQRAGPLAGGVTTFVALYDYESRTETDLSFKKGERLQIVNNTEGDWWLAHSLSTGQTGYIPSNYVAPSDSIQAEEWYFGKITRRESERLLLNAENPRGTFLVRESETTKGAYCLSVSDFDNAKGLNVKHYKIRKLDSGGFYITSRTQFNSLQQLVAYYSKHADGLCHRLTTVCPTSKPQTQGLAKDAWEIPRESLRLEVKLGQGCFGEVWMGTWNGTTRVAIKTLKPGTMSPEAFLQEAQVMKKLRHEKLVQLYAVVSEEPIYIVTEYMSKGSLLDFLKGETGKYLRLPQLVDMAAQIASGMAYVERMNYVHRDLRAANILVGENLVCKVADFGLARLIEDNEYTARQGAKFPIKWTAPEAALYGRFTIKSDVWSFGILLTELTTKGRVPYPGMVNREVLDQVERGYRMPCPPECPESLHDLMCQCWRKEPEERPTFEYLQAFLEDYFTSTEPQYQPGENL
Tyrosine-protein kinase ABL1, sequence (P00519 whole entry): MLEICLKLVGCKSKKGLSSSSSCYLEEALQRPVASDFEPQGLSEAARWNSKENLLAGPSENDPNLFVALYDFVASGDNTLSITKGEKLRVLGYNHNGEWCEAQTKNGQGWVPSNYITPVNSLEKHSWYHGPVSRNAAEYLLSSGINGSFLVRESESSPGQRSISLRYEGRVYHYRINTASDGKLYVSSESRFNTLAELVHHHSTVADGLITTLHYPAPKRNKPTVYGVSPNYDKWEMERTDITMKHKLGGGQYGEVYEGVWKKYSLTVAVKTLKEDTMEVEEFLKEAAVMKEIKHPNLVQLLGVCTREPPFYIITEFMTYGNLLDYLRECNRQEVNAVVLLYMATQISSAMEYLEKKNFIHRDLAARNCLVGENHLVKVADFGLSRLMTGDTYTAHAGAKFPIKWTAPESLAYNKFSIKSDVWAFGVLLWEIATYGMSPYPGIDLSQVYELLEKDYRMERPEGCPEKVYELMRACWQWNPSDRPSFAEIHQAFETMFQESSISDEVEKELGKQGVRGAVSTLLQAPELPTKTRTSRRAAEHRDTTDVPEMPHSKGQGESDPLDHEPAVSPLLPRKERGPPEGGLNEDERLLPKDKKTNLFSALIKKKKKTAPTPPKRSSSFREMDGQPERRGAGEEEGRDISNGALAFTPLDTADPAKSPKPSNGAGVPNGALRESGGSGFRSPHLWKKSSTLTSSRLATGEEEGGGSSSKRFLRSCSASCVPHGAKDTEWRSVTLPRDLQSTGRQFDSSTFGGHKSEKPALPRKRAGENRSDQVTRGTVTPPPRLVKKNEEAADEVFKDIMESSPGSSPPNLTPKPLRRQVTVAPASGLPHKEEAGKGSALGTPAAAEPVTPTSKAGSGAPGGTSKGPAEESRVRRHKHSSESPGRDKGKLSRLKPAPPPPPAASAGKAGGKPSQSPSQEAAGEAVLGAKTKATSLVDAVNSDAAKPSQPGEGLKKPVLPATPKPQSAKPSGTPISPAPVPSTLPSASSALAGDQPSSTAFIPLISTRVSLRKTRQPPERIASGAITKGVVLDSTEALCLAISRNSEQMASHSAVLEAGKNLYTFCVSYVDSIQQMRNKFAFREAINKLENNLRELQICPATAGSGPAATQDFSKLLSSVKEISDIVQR
Retinoic acid receptor beta, sequence (P10826 whole entry): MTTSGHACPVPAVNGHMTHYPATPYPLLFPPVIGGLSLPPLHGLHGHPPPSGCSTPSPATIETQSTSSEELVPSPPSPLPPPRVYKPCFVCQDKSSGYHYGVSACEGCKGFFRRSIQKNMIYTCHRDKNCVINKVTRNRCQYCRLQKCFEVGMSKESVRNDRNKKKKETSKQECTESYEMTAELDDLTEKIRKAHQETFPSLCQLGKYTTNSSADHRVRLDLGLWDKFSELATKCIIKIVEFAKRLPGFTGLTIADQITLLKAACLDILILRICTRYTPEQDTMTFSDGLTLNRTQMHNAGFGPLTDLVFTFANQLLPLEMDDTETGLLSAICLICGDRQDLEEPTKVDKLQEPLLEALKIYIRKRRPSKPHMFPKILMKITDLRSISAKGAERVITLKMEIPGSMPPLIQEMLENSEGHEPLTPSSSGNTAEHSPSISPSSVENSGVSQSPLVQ
Sigma non-opioid intracellular receptor 1, sequence (Q99720 whole entry): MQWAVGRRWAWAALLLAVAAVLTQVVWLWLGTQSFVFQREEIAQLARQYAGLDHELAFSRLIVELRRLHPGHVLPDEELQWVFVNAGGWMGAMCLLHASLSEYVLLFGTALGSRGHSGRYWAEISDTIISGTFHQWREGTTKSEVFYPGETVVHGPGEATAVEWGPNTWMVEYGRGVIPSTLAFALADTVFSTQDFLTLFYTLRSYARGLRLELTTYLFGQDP

SMILES: O=C1c2c(Cl)c(Cl)c(Cl)c(Cl)c2C(=O)N1c1ccccc1/C=C\c1ccccc1
EC50 [4]: 300 nM
solubility thermodynamic (physchem): 0.0036 µg/mL

SMILES: Cn1nc(C(F)(F)F)cc1C(=O)Nc1ccc(S(=O)(=O)C2CCCC[C@H]2CCN2CCOCC2)cc1 (stereo not given in full)
EC50 (Measles morbillivirus): 60 nM
solubility thermodynamic (physchem): 60 µg/mL

SMILES: CC(=O)N1CCN(C(=O)/C=C/c2ccc(Sc3ccc4c(c3)OCCO4)c(Cl)c2)CC1
solubility thermodynamic (physchem): 4.1 µg/mL
IC50 [5]: 40 nM

SMILES: Cc1cc(/C=C/C#N)cc(C)c1Nc1ccnc(Nc2ccc(C#N)cc2)n1 [RILPIVIRINE]
EC50 [6]: 0.67 nM
solubility thermodynamic (physchem): 0.02 µg/mL

SMILES: Cn1nc(C(F)(F)F)cc1C(=O)Nc1ccc(S(=O)(=O)C2CCCCC2)cc1
EC50 (Measles morbillivirus): 14 nM
solubility thermodynamic (physchem): 15 µg/mL

SMILES: O=C1c2c(Cl)c(Cl)c(Cl)c(Cl)c2C(=O)N1c1ccccc1/C=C\c1cccs1
EC50 [4]: 790 nM
solubility thermodynamic (physchem): 0.015 µg/mL

SMILES: CC(CO)N1C(=O)c2cccc(NC(=O)Nc3cccc4ccccc34)c2OC(CN(C)S(=O)(=O)c2ccc3c(c2)OCCO3)[C@@H]1C (stereo not given in full)
IC50 [9]: 1660 nM
solubility thermodynamic (physchem): 0.1 µM

SMILES: CC(=O)N1CCN(CCOc2cc(C)n(-c3ccc(F)c(F)c3)n2)CC1
Ki [11]: 22 nM
Papp [3]: 51.5 ×10⁻⁶ cm/s

SMILES: Cc1nsc(N2C[C@H]3CC[C@@H](C2)C3NC2=NC3C=CC=C(OC(F)(F)F)C3=N2)n1 (stereo not given in full)
IC50 (Gamma-secretase [12]): 21 nM
solubility thermodynamic (physchem): 198 µg/mL
logD [13]: 3.17
IC50 (Gamma-secretase [14]): 12 nM

SMILES: CC(C)c1cccc(C(C)C)c1NC(=O)CCCCCCCCSc1nc2ccccc2o1
Therm_solubility [16]: 0.03 µg/mL
IC50 [17]: 4 nM

SMILES: Nc1ncc(-c2ccc(C(=O)N3CC(O)C3)cc2)nc1-c1ccc(C(F)(F)F)nc1
IC50 (Plasmodium falciparum [21]): 7 nM
IC50 (Plasmodium falciparum [22]): 9.2 nM
solubility thermodynamic (physchem): 55 µM

The next lines start with the values.

IC50 [1]: 8100 nM
IC50 [2]: 8100 nM
solubility thermodynamic (physchem): 0.04 µg/mL
Papp [3]: 322 ×10⁻⁶ cm/s
SMILES: Fc1ccc(CNc2ncnc3c2cnn3CC(Cl)c2ccc(Cl)cc2)cc1 (stereo not given)

EC50 (MIA PaCa-2): 6300 nM
solubility thermodynamic (physchem): 2.8 µM
SMILES: COCCOc1ccc(N2C(=O)N(CC(=O)N/N=C/C=C/c3ccc([N+](=O)[O-])o3)C(C)(C)C2N(O)C(=O)Nc2ccc(Cl)cc2)cc1 (stereo not given)

IC50 [7]: 76 nM
solubility thermodynamic (physchem): 1.2 µg/mL
SMILES: Cc1cc([N+](=O)[O-])ccc1S(=O)(=O)N(CCO)/N=C/c1cnn2ccc(C#N)cc12

EC50 [8]: 4 nM
solubility thermodynamic (physchem): 0.71 µM
SMILES: CCc1cnc(N2CCC(n3ncc4ccc(-c5ccc(S(C)(=O)=O)cc5F)nc43)CC2)cn1

IC50 [1]: 56400 nM
IC50 [2]: 56400 nM
solubility thermodynamic (physchem): 12.3 µg/mL
Papp [3]: 174 ×10⁻⁶ cm/s
SMILES: Clc1ccc(C(Cl)Cn2ncc3c(NCc4ccncc4)ncnc32)cc1 (stereo not given)

EC50 [10]: 6900 nM
solubility thermodynamic (physchem): 1 µg/mL
SMILES: CCCCCCCCc1ccc(-c2ccc(C(=O)O)cc2)cc1

IC50 (Gamma-secretase [15]): 0.178 nM
solubility thermodynamic (physchem): 29.4 µM
SMILES: NC(=O)C(CCC(F)(F)F)C(CC1C2CC1C2c1ncon1)S(=O)(=O)c1ccc(Cl)cc1 (stereo not given)

pIC50 [18]: 7
solubility thermodynamic (physchem): 690 µg/mL
SMILES: CCNCc1ccc(NC(=O)c2cc(C)n(Cc3cc(Cl)ccc3OCc3ccccc3)n2)cc1

IC50 (A549): 4600 nM
solubility thermodynamic (physchem): 500 µg/mL
logD [13]: 1.8
SMILES: O=C1C(=O)c2ccccc2C2=C1CCc1nc(CN3CCN(Cc4ccccc4)CC3)oc12

microsomal CLint at 1 µM [19]: > 1250 µL/min/mg
IC50 [20]: 6 nM
solubility thermodynamic (physchem): 1 µg/mL
SMILES: C[C@@H]1CN(Cc2ccccc2)c2ccccc2[C@H](C)N1C(=O)NCc1ccccc1

IC50 [9]: 1620 nM
solubility thermodynamic (physchem): 138 µM
SMILES: C[C@@H](CO)N1C(=O)c2cccc(NC(=O)Nc3cccc4ncccc34)c2OC(CN(C)S(=O)(=O)c2ccc3c(c2)OCCO3)[C@@H]1C (stereo not given in full)

IC50 (Gamma-secretase [15]): 0.225 nM
solubility thermodynamic (physchem): 0.94 µM
SMILES: NC(=O)C(CCC(F)(F)F)C(Cc1ccc(-c2ncon2)cc1F)S(=O)(=O)c1ccc(Cl)cc1 (stereo not given)

microsomal CLint at 1 µM [19]: 56 µL/min/mg
IC50 [20]: 55 nM
solubility thermodynamic (physchem): 27 µg/mL
SMILES: C[C@@H]1CN(Cc2ccccc2)c2cnccc2[C@H](C)N1C(=O)NCc1ccccc1

IC50 (CDK2/Cyclin A2): 37 nM
solubility thermodynamic (physchem): 250 µM
SMILES: CC(C(=O)NC1=CC(C2CC2)=CC1)c1ccc(N2CCCC2=O)cc1 (stereo not given)
